{
  "source": "the NIST ThermoML archive (doi:10.1021/je7004787)",
  "test": "wn = mass fraction of the nth substance listed",
  "details": "298.15 K, 101 kPa, Liquid; for viscosity: Capillary tube (Ostwald / Ubbelohde) method; for mass density: Pycnometric method",
  "note": "Numbers after ± are expanded uncertainties.",
  "data": [
    {"smiles": "C1COCCO1", "note": "[1,4-dioxane] + C1CCOC1", "values": [
      {"measurement": "viscosity", "setting": "w1 = 0.1", "result": "0.49 ± 0.014", "unit": "mPa·s"},
      {"measurement": "viscosity", "setting": "w1 = 0.2", "result": "0.51 ± 0.014", "unit": "mPa·s"},
      {"measurement": "viscosity", "setting": "w1 = 0.3", "result": "0.53 ± 0.015", "unit": "mPa·s"},
      {"measurement": "viscosity", "setting": "w1 = 1", "result": "1.2 ± 0.031", "unit": "mPa·s"},
      {"measurement": "mass density", "setting": "w1 = 0.1", "result": "894.1 ± 4.5", "unit": "kg/m3"},
      {"measurement": "mass density", "setting": "w1 = 0.2", "result": "907.1 ± 4.6", "unit": "kg/m3"},
      {"measurement": "mass density", "setting": "w1 = 0.3", "result": "919 ± 4.8", "unit": "kg/m3"},
      {"measurement": "mass density", "setting": "w1 = 1", "result": "1030.5 ± 6", "unit": "kg/m3"}
    ]},
    {"smiles": "C1CCOC1", "note": "[tetrahydrofuran] + C1COCCO1", "values": [
      {"measurement": "viscosity", "setting": "w2 = 0", "result": "0.463 ± 0.013", "unit": "mPa·s"},
      {"measurement": "mass density", "setting": "w2 = 0", "result": "880.7 ± 4.4", "unit": "kg/m3"}
    ]}
  ]
}
